Source: ChEMBL document CHEMBL2413019, “Structure-activity-relationship studies on dihydrofuran-fused perhydrophenanthrenes as an anti-Alzheimer's disease agent” (Bioorg Med Chem, 2013)
Activity calls are given as the source filed them. The rule behind the calls is not given here.

Key:
[1] = Cytotoxicity against Sprague-Dawley rat cortical neurons assessed as cell viability after 48 hrs by CellTiter-Glo luminescent assay; conditions: cortical neurone
Cortical neurone [2] = assay: Antialzheimer activity in amyloid beta (25 to 35)-treated Sprague-Dawley rat cortical neurons assessed as dendrite extension activity at 10 uM after 4 days by fluorescence microscopic analysis; type: functional
Cortical neurone [3] = assay: Antialzheimer activity in amyloid beta (25 to 35)-treated Sprague-Dawley rat cortical neurons assessed as dendrite extension activity at 1 uM after 4 days by fluorescence microscopic analysis; type: functional
[4] = Cytotoxicity against Sprague-Dawley rat cortical neurons assessed as cell viability at 1 to 10 uM after 48 hrs by CellTiter-Glo luminescent assay; conditions: cortical neurone

Question: Which results are given for N#C[C@]12CCC[C@@H]3CO[C@H](Cc4ccc(O)cc41)[C@@H]32?
Answer: Activity [1]: Dose-dependent effect; Activity (Cortical neurone [2]): Active; Activity (Cortical neurone [3]): inactive

Question: Which Activity [1] does the source give for N#C[C@]12CC[C@H](O)[C@@H]3CO[C@H](Cc4ccc(O)cc41)[C@@H]32 here?
Answer: Its Activity is “Dose-dependent effect”.

Question: For N#C[C@]12CCC3(OCCO3)C3=CO[C@H](Cc4cc(I)c(O)cc41)[C@@H]32, which Activity [1] is on record?
Answer: Its Activity is “Dose-dependent effect”.

Question: Which Activity (Cortical neurone [3]) does the source give for Oc1ccc2c(c1)[C@@H]1CCC3(OCCO3)C3=CO[C@H](C2)[C@@H]31 here?
Answer: The Activity was “inactive”.

Question: With N#C[C@]12CC=CC3=CO[C@H](Cc4cc(C#CCCO)c(O)cc41)[C@@H]32 as the compound, how does the Activity [1] read?
Answer: Its Activity is “Dose-dependent effect”.

Question: And the Activity (Cortical neurone [2])?
Answer: The Activity was “inactive”.

Question: And the Activity (Cortical neurone [3])?
Answer: Its Activity is “Active”.

Question: With C#Cc1cc2c(cc1O)[C@]1(C#N)CC=CC3=CO[C@H](C2)[C@@H]31 as the compound, how does the Activity [1] read?
Answer: The Activity was “Dose-dependent effect”.

Question: What about the Activity (Cortical neurone [2]) of the same compound?
Answer: The Activity was “Active”.

Question: And the Activity (Cortical neurone [3])?
Answer: Its Activity is “inactive”.

Question: Which Activity [1] does the source give for N#C[C@]12CCC3(OCCO3)C3=CO[C@H](Cc4cc(C#CCCO)c(O)cc41)[C@@H]32 here?
Answer: Its Activity is “Dose-dependent effect”.

Question: With N#C[C@]12CC=CC3=CO[C@H](Cc4ccc(O)cc41)[C@@H]32 as the compound, how does the Activity [1] read?
Answer: Its Activity is “Dose-dependent effect”.

Question: For CCCCCCCCC/C=C/c1cc2c(cc1O)[C@]1(C#N)CCC3(OCCO3)C3=CO[C@H](C2)[C@@H]31, which Activity [1] is on record?
Answer: Its Activity is “Dose-dependent effect”.

Question: And the Activity (Cortical neurone [2])?
Answer: The Activity was “inactive”.

Question: And the Activity (Cortical neurone [3])?
Answer: The Activity was “Active”.

Question: For N#C[C@]12CC=CC3=CO[C@H](Cc4cc(-c5ccccc5)c(O)cc41)[C@@H]32, which Activity [1] is on record?
Answer: The Activity was “Dose-dependent effect”.

Question: With N#C[C@]12CC[C@H](O)C3=CO[C@H](Cc4ccc(O)cc41)[C@@H]32 as the compound, how does the Activity [1] read?
Answer: The Activity was “Dose-dependent effect”.

Question: Which Activity [1] does the source give for C#Cc1cc2c(cc1O)[C@]1(C#N)CCC3(OCCO3)C3=CO[C@H](C2)[C@@H]31 here?
Answer: Its Activity is “Dose-dependent effect”.

Question: What about the Activity (Cortical neurone [2]) of the same compound?
Answer: Its Activity is “Active”.

Question: And the Activity (Cortical neurone [3])?
Answer: Its Activity is “inactive”.

Question: For N#C[C@]12CCC3(OCCO3)C3=CO[C@H](Cc4ccc(O)cc41)[C@@H]32, which Activity [4] is on record?
Answer: The Activity was “Non-toxic”.

Question: Which Activity (Cortical neurone [3]) does the source give for CCOc1cc2c(cc1O)[C@]1(C#N)CCC3(OCCO3)C3=CO[C@H](C2)[C@@H]31 here?
Answer: Its Activity is “Active”.

Question: With N#C[C@]12CCC3(OCCO3)C3=CO[C@H](Cc4cc(Sc5ccccc5)c(O)cc41)[C@@H]32 as the compound, how does the Activity (Cortical neurone [3]) read?
Answer: The Activity was “Active”.

Question: For N#C[C@]12CCC3(OCCO3)C3=CO[C@H](Cc4cc(-c5ccccc5)c(O)cc41)[C@@H]32, which Activity [1] is on record?
Answer: The Activity was “Dose-dependent effect”.

Question: For N#C[C@]12CCC3(OCCO3)[C@@H]3CO[C@H](Cc4ccc(O)cc41)[C@@H]32, which Activity (Cortical neurone [3]) is on record?
Answer: The Activity was “Active”.

Question: For N#C[C@]12CCC3(OCCO3)C3=CO[C@H](Cc4cc(O)c(O)cc41)[C@@H]32, which Activity (Cortical neurone [3]) is on record?
Answer: The Activity was “inactive”.
